In brackets after ≈: the same amount, converted by molar mass. Where two headings read alike, the source gives them in different places.
Assays:
[1] = L929 cytotoxicity evaluation (resazurin); assay type: cell-based; conditions: mouse, L929 mouse fibroblast cells; 72 hrs incubation; read-out: Cytotox L-929 IC50
How it was run: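 Mouse L929 fibroblasts (1×10^4/mL seeding, attached overnight) were treated 72 h at 37 °C, 5% CO2 with serially diluted compounds in DMSO in D-MEM/10% FBS. Viability read by resazurin fluorescence after 3–4 h (ex 544/em 590 nm); IC50 from sigmoidal fits of single data points.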

[2] = Kinetic solubility by nephelometric (light scattering) method; assay type: physicochemical; conditions: phosphate buffered saline, aqueous buffer, kinetic from dmso stock, PBS pH 7.4
Experimental: The kinetic solubilities of compounds were estimated using a nephelometric (light scattering) method. Briefly, compounds were serially diluted in DMSO, followed by dilution in PBS pH 7.4. After incubation, the amount of light scattered by a compound at each concentration was measured. […] At concentrations above the solubility limit, the compound precipitates and the precipitant in the well scatters the light, generating a signal. Higher levels of precipitant in a well scatter more light and produce a stronger signal.
A stock solution of compound (25 mM in DMSO) was prepared, and was serially diluted in DMSO in two-fold increments in a row of a 96 well plate to a lowest concentration of 24 μM. A duplicate plate was prepared by transfer of half of the volume of each well to a new plate. Each well containing DMSO solution of the test compound was then diluted further (1:100) with phosphate buffered saline (pH 7.4) to provide aqueous solutions of compound at the following final concentrations: 250, 125, 62.5, 31.3, 15.6, 7.8, 3.9, 2.0, 1.0, 0.5 and 0.2 μM. All liquid handling stages were performed on a Beckman Coulter Biomek NX Laboratory Automation Workstation. Each compound was diluted and tested in duplicate, providing four separate wells at each test concentration.
The test solutions of compound were incubated at room temperature for 90 minutes and then analyzed using a Thermoskan Ascent nephelometric plate reader. The nephelometer protocol included two steps: first, the plate was shaken for 60 seconds at 1200 rpm, then each well of the plate was read in succession with an 800 ms settling delay between measurements. The total measurement time for a single plate was less than 4 minutes.
The four values (in nephelometric units) obtained for each compound at each concentration were averaged and plotted on a log scale versus concentration.

[3] = test system: bloodstream-form trypanosome T. brucei brucei 427 strain; test: Trypanosoma brucei brucei high-throughput in vitro drug sensitivity assay (resazurin); assay type: cell-based; conditions: for Selectivity Index (L929 IC50 / T. b. brucei IC50): T. b. brucei vs L929; for IC50: Trypanosoma brucei
[4] = test system: Leishmania donovani strain 1S-CL2D axenic amastigotes; test: Leishmania donovani axenic amastigote in vitro drug sensitivity assay (resazurin); assay type: cell-based; conditions: for Selectivity Index (Ld/L929): L. donovani vs L929; for IC50: Leishmania donovani, 72 hrs incubation
Experimental: All experiments were conducted with the axenic amastigote-form of the following parasite: Leishmania donovani strain 1S-CL2D from Sudan, World Health Organization (WHO) designation: (MHOM/SD/62/1 S-CL2D). Parasites were cultured in T-25 vented cap flasks and kept in humidified incubators at 37° C. and 5% CO2. The axenic parasite culture media was RPMI-1640/MES/pH 5.5 formulated and prepared as described by Debrabant et. al. (International Journal for Parasitology 2004, Volume 34, page 205-217). To ensure log growth phase, axenic amastigotes were sub-cultured at appropriate dilutions every 2-3 days.
Cultures of axenic amastigotes growing in the log phase were passed through a 22 gauge blunt needle to break up the clumps, diluted 1:10 in RPMI-1640/MES medium and counted using hemocytometer to determine parasite concentration. Amastigotes were diluted to 2×10^5/mL in RPMI-1640/MES medium to generate a 2-fold working concentration for assay. Compounds to be tested were serially diluted in DMSO and 0.5 μL added to 50 μL HMI-9 in triplicate 96-well plates using a Biomek NX liquid handler. Parasites from the diluted stock were added to each well (50 μL) using a Multidrop 384 dispenser to give a final concentration of 1.0×10^5/ml parasites in 0.5% for DMSO. Amastigotes were incubated with compounds for 72 hrs at 37° C. with 5% CO2. Resazurin (10 μL of 12.5 mg/ml stock) from Sigma-Aldrich was added to each well and plates were incubated for an additional 2-3 hrs. Assay plates were read using an EnVision plate reader at an excitation wavelength of 544 nm and emission of 590 nm. Triplicate data points were averaged to generate sigmoidal dose response curve and determine IC50 values using XLfit curve fitting software from IDBS (Guildford, UK).

[5] = Pharmacokinetic studies in mice (plasma, brain); assay type: in vivo; conditions: for CL/F / half-life / Cmax / AUC(0-inf) / AUC(0-t): male, CD-1, mouse, 8 mg/kg, oral; for CL/F / half-life: mice (Table 3a); for CL/F: read-out: Oral Clearance Cl/F (converted); for half-life: read-out: t½ (converted); for Cmax / AUC(0-inf) / AUC(0-t): mice, normalized to 25 mg/kg (Table 3a); for AUC(0-inf): read-out: Exposure/trapezoid AUC0-inf; for AUC(0-t): read-out: Exposure/trapezoid AUC0-last; for Fold improvement 69 vs E14: AUC0-inf / Fold improvement 69 vs E14: AUC0-last / Fold improvement 69 vs E14: Cmax / Fold improvement 69 vs E14: Oral Clearance Cl/F / Fold improvement 69 vs E14: t½: mouse, in vivo, po
Experimental: Male CD-1 mice weighing approximately 25 g received the test article (E19 or 82 or E14 or 69) by either intravenous (IV), oral gavage (OG) or intra-peritoneal (IP) routes. Animals in IV group (6-10 animals, 1-2 per time point) received a single bolus injection of approximately 2 mg/kg of the test article. Animals receiving […], or as 4 repeat doses ([…], 1-2 per time point).
All doses were administered as clear colorless solutions in either: 50% (v/v) PEG400:20% (v/v) ethanol:30% (v/v) carboxymethylcellulose (0.5% w/v in sterile water for injection, WFI), or as in situ sodium salts in 5% (m/v) dextrose:2% (v/v) ethanol in DWI. All dose solutions were delivered at 4 mL/kg. Animals were fasted for at least 4 hours before dosing, and for 2 hours after dosing.
Blood samples and brain tissue were sampled from 1 or 2 animals/timepoint/group immediately before dosing and approximately 0.17, 0.5, 1, 2, 3, 4, 6, 8, 12, 18 and 24 hr after dosing for full pharmacokinetic and tissue analysis, or at 0.5, 2 and 4 hours post dosing to assess early-phase CNS disposition.
Bioanalysis for test article in whole blood, plasma or brain tissue was performed by HPLC with tandem mass spectrometry (LC-MSMS). Whole blood and plasma samples were treated with 3 volumes of either acetonitrile or methanol to precipitate plasma proteins. Treated samples were centrifuged and supernatants removed for analysis. Brain tissues were weighed and homogenized mechanically in the presence of 1 volume of phosphate-buffered saline (PBS). The resulting tissue suspensions were then diluted with a further volume of PBS, and then treated in the same manner as whole blood or plasma.
Extracted samples were assayed for test article by means of LC-MSMS employing reversed-phase chromatography coupled to a triple quadrupole mass spectrometer employing electrospray ionization in the positive ion mode. The analytical column was a Phenomenex Luna 3μ C8 50×2 mm, with an online sample purification step performed on a Phenomenex Synergi 4μ Polar RP 50×2 mm column.
Test articles were eluted using a binary mobile phase gradient comprising 5 mM Ammonium Acetate: 0.1% formic acid in either MeOH or H2O.
Non-compartmental analysis of plasma test article concentration versus time was performed in Microsoft Excel to generate pharmacokinetic parameters including: area under the curve (AUC), clearance (as Cl or Cl/F), volume of distribution (Vdss), half-life (t½), and bioavailability (F).

[6] = 72 hrs incubation, read-out: T. b. brucei IC50
[7] = 72 hrs incubation, read-out: T.b. brucei IC50
[8] = read-out: L. donovani axenic amastigotes IC50
[9] = read-out: L. donovani axenic amastigotes IC50 (ug/mL)

CC1OB(O)c2cc(NC(=O)c3ccc(F)cc3)ccc21 (centres unmarked) [compound 3, 4-Fluoro-N-(1-hydroxy-3-methyl-1,3-dihydro-benzo[c][1,2]oxaborol-6-yl)-benzamide]
IC50 at 72 h [1]: > 10 µg/mL | solubility at 90 min [2]: 100 µM (≈ 28.5 µg/mL) | Selectivity Index (L929 IC50 / T. b. brucei IC50) [3]: >200 | IC50 [3, 6]: 175 nM | IC50 [3, 7]: 0.05 µg/mL | Selectivity Index (Ld/L929) [4]: >10 | IC50 [4, 8]: 344 nM | IC50 [4, 9]: 0.098 µg/mL

CC1(C)OB(O)c2cc(NC(=O)c3ccc(F)cc3Cl)ccc21 [compound 69, 2-Chloro-4-fluoro-N-(1-hydroxy-3,3-dimethyl-1,3-dihydro-benzo[c][1,2]oxaborol-6-yl)-benzamide]
CL/F ([5]; brain): 20 mL/min/kg | half-life ([5]; brain): 84 min | Cmax ([5]; brain): 3250 ng/mL | AUC(0-inf) ([5]; brain): 21300 ng·h/mL | AUC(0-t) ([5]; brain): 20800 ng·h/mL | CL/F ([5]; plasma): 7.32 mL/min/kg | half-life ([5]; plasma): 222 min | Cmax ([5]; plasma): 7670 ng/mL | AUC(0-inf) ([5]; plasma): 58000 ng·h/mL | AUC(0-t) ([5]; plasma): 56900 ng·h/mL | Fold improvement 69 vs E14: AUC0-inf ([5]; in brain): 6.8 fold | Fold improvement 69 vs E14: AUC0-last ([5]; in brain): 6.7 fold | Fold improvement 69 vs E14: Cmax ([5]; in brain): 1.3 fold | Fold improvement 69 vs E14: Oral Clearance Cl/F ([5]; in brain): 6.7 fold | Fold improvement 69 vs E14: t½ ([5]; in brain): 0.9 fold | Fold improvement 69 vs E14: AUC0-inf ([5]; in plasma): 3.8 fold | Fold improvement 69 vs E14: AUC0-last ([5]; in plasma): 4.0 fold | Fold improvement 69 vs E14: Cmax ([5]; in plasma): 2.1 fold | Fold improvement 69 vs E14: Oral Clearance Cl/F ([5]; in plasma): 3.9 fold | Fold improvement 69 vs E14: t½ ([5]; in plasma): 1.2 fold | IC50 at 72 h [1]: > 10 µg/mL | solubility at 90 min [2]: 100 µM (≈ 33.4 µg/mL) | Selectivity Index (L929 IC50 / T. b. brucei IC50) [3]: >35 | IC50 ([3]; 72 h, read-out: T. b. brucei IC50 (nM)): 845 nM | IC50 ([3]; 72 h, read-out: T.b. brucei IC50 (ug/mL)): 0.282 µg/mL

CC1OB(O)c2cc(NC(=O)c3ccccc3Cl)ccc21 (centres unmarked) [compound 4, 2-Chloro-N-(1-hydroxy-3-methyl-1,3-dihydro-benzo[c][1,2]oxaborol-6-yl)-benzamide]
IC50 at 72 h [1]: 1.24 µg/mL (≈ 4.11 µM) | solubility at 90 min [2]: > 200 µM | Selectivity Index (L929 IC50 / T. b. brucei IC50) [3]: 52 | IC50 [3, 6]: 80 nM | IC50 [3, 7]: 0.024 µg/mL | Selectivity Index (Ld/L929) [4]: 9 | IC50 [4, 8]: 458 nM | IC50 [4, 9]: 0.138 µg/mL

CC1OB(O)c2cc(NC(=O)c3ccc(F)cc3C(F)(F)F)ccc21 (centres unmarked) [compound 1]
IC50 at 72 h [1]: 1.21 µg/mL (≈ 3.43 µM) | solubility at 90 min [2]: 50 µM (≈ 17.7 µg/mL) | Selectivity Index (L929 IC50 / T. b. brucei IC50) [3]: 13 | IC50 [3, 6]: 258 nM | IC50 [3, 7]: 0.091 µg/mL | Selectivity Index (Ld/L929) [4]: 7 | IC50 [4, 8]: 524 nM | IC50 [4, 9]: 0.185 µg/mL

CC1OB(O)c2cc(NC(=O)c3ccccc3C(F)(F)F)ccc21 (centres unmarked) [compound 2, N-(1-Hydroxy-3-methyl-1,3-dihydro-benzo[c][1,2]oxaborol-6-yl)-2-trifluoromethyl-benzamide]
IC50 at 72 h [1]: 0.53 µg/mL (≈ 1.58 µM) | solubility at 90 min [2]: 3 µM (≈ 1.01 µg/mL) | Selectivity Index (L929 IC50 / T. b. brucei IC50) [3]: 7 | IC50 [3, 6]: 233 nM | IC50 [3, 7]: 0.078 µg/mL | Selectivity Index (Ld/L929) [4]: 2 | IC50 [4, 8]: 830 nM | IC50 [4, 9]: 0.278 µg/mL

COc1ccc(C(=O)Nc2ccc3c(c2)B(O)OC3C)cc1 (centres unmarked) [compound 5, N-(1-Hydroxy-3-methyl-1,3-dihydro-benzo[c][1,2]oxaborol-6-yl)-4-methoxy-benzamide]
IC50 at 72 h [1]: > 10 µg/mL | solubility at 90 min [2]: 100 µM (≈ 29.7 µg/mL) | Selectivity Index (L929 IC50 / T. b. brucei IC50) [3]: >185 | IC50 [3, 6]: 182 nM | IC50 [3, 7]: 0.054 µg/mL | Selectivity Index (Ld/L929) [4]: >93 | IC50 [4, 8]: 360 nM | IC50 [4, 9]: 0.107 µg/mL

Reference: US20110190235A1, “BORON-CONTAINING SMALL MOLECULES AS ANTIPROTOZOAL AGENTS” (Anacor Pharmaceuticals, Inc., priority 2009, published 2011)
